Reference: patent US20050215531A1, “Use of edg receptor binding agents in cancer” (priority 2002, published 2005)

How the values were obtained:
Assay type in all cases: cell-based, human
[1] = tested on: tissue factor; experiment: Clotting assay, tissue factor activity on HUVEC
Description: (§1) Human umbilical vein endothelial cells (HUVEC) are cultured at 37° C. and 5% CO2 in medium M199 supplemented with 20% SCS (HyClone, Logan, Utah), 1 U/ml heparin, 50 μg/ml ECGS, 2 mM glutamine, 100 U/ml penicillin and 0.1 mg/ml streptomycin. Cells are used for experiments up to passage number 5. Short-starved HUVEC are obtained by starving with 1% SCS-containing M199 for 5 h. Recombinant human VEGF165 is obtained from PromoCell (Heidelberg, Germany). Phospho-specific ERK½, p3B kinase polyclonal antibodies, nonphospho ERK½ antibodies and LumiGLO chemiluminescent reagent are from New England BioLabs (Beverly, Mass.), polyclonal IKB antibodies from Santa Cruz Biotechnology (Santa Cruz, Calif.). Peroxidase-conjugated donkey anti-rabbit immunoglobulin G (IgG) and sheep anti-mouse IgG are purchased from Amersham LIFE SCIENCE (Amersham Place, England). lmmobilon-P transfer membranes are products of Millipore (Bedford, Mass.). S is obtained from Sigma Chemical Co.; S1P is from Biomol. Compound A-phosphate stock solution is prepared by the following protocol. Compound A-phosphate is dissolved in methanol tracing with concentrated HCl (0.5 mg Compound A-phosphate in 500 μl of methanol plus 2 μl of HCl). Solvent from the resulting solution is evaporated under vacuum and the residue obtained is redissolved (variant 1) in 0.1% of defatted BSA solution in sterile deionized water (500 μl) or (variant 2) in 0.5% Triton X-100 in deionized water. The resulting stock solutions (2.5 mM) are sonicated and stored at 4° C.
Cells are seeded in 6-well plates at 80-90% confluency and grown overnight. Cells are scraped from the plates and analyzed for tissue factor activity according to the method as described in Clauss, M., J. Biol. Chem. 271,17629-17634 (1996), Mechtcheriakova, D., Blood 93,3811-3823 (1999). Briefly, after induction for 4 hours with VEGF (1.5 nM), TNF-α (100 U/ml), S (0.5-2 μM), S1P (0.5-2 μM), Compound A (0.5-2 μM), and Compound A-phosphate (0.5-2 μM), cells are washed twice and then scraped in 1 ml clotting buffer (12 mM sodium acetate, 7 mM diethylbarbitate and 130 mM sodium chloride; pH 7.4). 50 μl of resuspended cells are mixed with 50 μl of citrated plasma, and clotting times are determined after recalcfication with 50 μl of 20 mM CaCl2 solution at 37° C. TF-equivalents are determined by using a standard curve obtained from rabbit brain thromboplastin.
An important characteristic feature of both classical inflammatory stimulus TNF-α and the main angiogenic growth factor VEGF on endothellal cells is their potency to upregulate tissue factor. Compound A, Compound A-phosphate, S or S1P are tested whether they also do induce tissue factor on HUVEC. […] The data obtained together indicate that Compound A, Compound A-phosphate, S and S1P mechanistically work distinctly to anglogenic VEGF and inflammatory TNF-α.

[2] = tested on: JNK½; experiment: Western blot, JNK½ activation in HUVEC
Description: as §1, with “Solvent from the resulting solution is evaporated under vacuum and the residue obtained is redissolved (variant 1) in 0.1% of defatted BSA solution in sterile deionized water (500 μl) or (variant 2) in 0.5% Triton X-100 in deionized water. The resulting stock solutions (2.5 mM) are sonicated and stored at 4° C.” left out

[3] = tested on: p38 kinase; experiment: Western blot, p38 kinase activation in HUVEC
Description: as §1, with “Solvent from the resulting solution is evaporated under vacuum and the residue obtained is redissolved (variant 1) in 0.1% of defatted BSA solution in sterile deionized water (500 μl) or (variant 2) in 0.5% Triton X-100 in deionized water. The resulting stock solutions (2.5 mM) are sonicated and stored at 4° C.” left out

[4] = tested on: ERK½ MAP kinases; experiment: Western blot, activation of ERK½ MAP kinases in HUVEC; settings: HUVEC
Description: as §1
After various treatments, the cells are washed twice with cold PBS, lysed in 100 μl of Laemmli buffer, scraped and heated for 5 min at 95° C. Total cell lysates are separated by SDS-PAGE and transferred to Immobilon-P membrane. The membrane is blocked for 30 minutes with PBS containing 0.1% Tween-20 and 3% skim milk and incubated for 1 hour at RT with a primary antibody diluted in blocking buffer. The membrane obtained is washed three times for 5 minutes with PBS containing 0.1% Tween-20 and incubated with peroxidase-conjugated secondary antibody for 1 hour at RT. After a washing step, the membrane is incubated for 1 minute with ECL reagent and exposed to film as required. For reprobing with another antibody, the membrane is washed twice in PBS, stripped for 30 min at 55° C. with stripping buffer (62.5 mM Tris-HCL, pH 6.8, 2% SDS, 100 mM 2-mercaptoethanol) and washed three times for 5 minutes with PBS at RT. The membrane is stored wet wrapped in SaranWrap at 4° C. after each immunodetection.
Signal transduction via MAP idnases plays a key role in a variety of endothelial cell functions. Treatment of HUVEC with Compound A-phosphate at 0.5 μM may result in transient activation of ERK½ with a peak of phosphorylation/activation at 10 minutes and returning to baseline by 20 minutes (see e.g. FIG. 5). No activation of p38 kinase and JNK½ by Compound A-phosphate is detectable in HUVEC. […] To estimate the possible role of inflammatory/NFκB-dependent program in Compound A-phosphatestimulated bioresponses of endothelial cells, the membranes are reprobed with anti-IκB antibodies. IκB levels are not affected by Compound A-phosphate treatment.

[5] = tested on: E-Selectin; experiment: E-Selectin expression in endothelial cells
[6] = tested on: IκB; experiment: Western blot reprobed with anti-IκB antibodies (NFκB-dependent program); settings: endothelial cells
Description: as §1, with “Solvent from the resulting solution is evaporated under vacuum and the residue obtained is redissolved (variant 1) in 0.1% of defatted BSA solution in sterile deionized water (500 μl) or (variant 2) in 0.5% Triton X-100 in deionized water. The resulting stock solutions (2.5 mM) are sonicated and stored at 4° C.” left out

[7] = tested on: HUVEC; experiment: In vitro angiogenesis (tube formation) assay on Matrigel
Description: as §1
Morphogenesis of endothelial cells into capillary-like structures on Growth Factor Reduced Matrigel Matrix (BD Bioscience) is performed according to the manufacture procedure. Briefly, HUVEC are trypsinized, resuspended in serum-free Ml 99 medium containing soybean trypsin inhibitor (1 mg/ml, Sigma). After centrifugation cells are resuspended in serum-free medium at a density 0.5×10^5 cells/ml, and cell suspension is seeded in 96-well cell culture plates (Costar, Corning Incorporated) precoated with 50 μl of Matrigel in the absence or presence of various stimuli: VEGF at 1.5 nM, S1P at 0.1-2 μM, S at 0.5-2 μM, Compound A at 0.5-2 μM, and Compound A-phosphate at 0.1-2 μM. Eight hours later, cells on Matrigel are fixed with 3% formaldehyde in PBS and kept at 4° C. Results are quantitated from images made with a Nikon Diaphot microscope equipped with a cooled CCD camera (Kappa GmbH, Gleichen, Germany) by direct counting of branching points on two microscopic fields from each well done in duplicates.
The effect of Compound A and Compound A-phosphate on morphogenic differentiation of endothelial cells is determined using an in vitro angiogenesis assay on Matrigel. Endothelial cell morphogenesis is a complex process that requires cell-extracellular matrix interactions, followed by matrix remodelling, stimulated migration, cell-cell interactions, and perivascular proteolysis. […] This may be interpreted as a possible involvement of EDG-1 (S1P1) receptor-mediated signaling events in Compound A-phosphate-stimulated bioresponses (see e.g. FIG. 3). […] Importantly, high concentrations of S and Compound A (2-5 μM) inhibited VEGF-triggered tube formation.

## CCCCCCCCc1ccc(CCC(N)(CO)COP(=O)(O)O)cc1 (centres unmarked) [Compound A-phosphate]
[1]; TNF-α 100 U/ml
  effect on TNF-α-induced tissue factor: not TNF-α-induced
[1]; VEGF 1.5 nM
  effect on VEGF-induced tissue factor: slightly enhance
[1]; compound alone or in combinations, 0.5-2 μM, 4 hours
  tissue factor activity: none of these compounds alone or in combinations may elevate tissue factor activity
[2]
  activation of JNK½: No activation
[3]
  activation of p38 kinase: No activation
[4]; 0.5 μM
  time of ERK½ activation returning to baseline: ≤ 20 min
[4]; 0.5 μM, transient activation
  time of peak of ERK½ phosphorylation/activation: 10 min
[4]; 0.5 versus 2 μM
  ERK½ activation, dose dependence: dose-dependent manner, showing stronger activity at 2 μM
[5]
  E-Selectin expression: fail to induce
[6]
  IκB levels: not affected
[7]; 2 μM
  tube formation potency at 2 μM versus 0.5 μM: less potent than at 0.5 μM
[7]; 0.5-1 μM, with VEGF
  effect on VEGF-mediated remodelling: does not attenuate
[7]; bell-shape dose-dependence, tested 0.1-2 μM, 8 h
  concentration of maximal activity in capillary-like network formation: around 0.5 μM
[7]; compared with S1P and VEGF
  number of branching points per microscopic field (induction potency): comparable for Compound A-phosphate and S1P
